This assay deals with GLP-1 Receptor (Homo sapiens, UniProt P43220). Put plainly: GLP-1R agonist cAMP stimulation assay. Type of assay: cell-based. The protocol:
Activation of GLP-1 receptor is known to stimulate cyclic AMP (cAMP) production in cells which indicates primary coupling to the Gαs subunit of the G protein heterotrimeric complex.
To optimize functional activity directed toward Gαs coupling, a HEK293/CRE-Luc cell line developed by HDB stably expressing the GLP-1 Receptor was used. 200× concentration of compound working solutions were prepared (Agilent Technologies Bravo) with ½ log serial dilution in 384-well Echo LDV plate (Labcyte, Cat #LP-0200). 50 nL/well 200× concentration of compound working solutions were moved to 384-well white low volume plate (Greiner, Cat #784075) using Labcyte ECHO550. 1×10^5 cells/mL HEK293/GLP1R/CRE-LUC(HD Biosciences) cell suspensions prepared with assay buffer[DPBS containing 0.5 mM IBMX(Sigma, Cat #15879) and 0.1% BSA (GENVIEW, Cat #FA016-100 g)], 10 uL cell suspensions were added to each well of previous generated assay plate which already contains 50 nl compound at 200×concentration using ThermoFisher Multidrop Combi (1000 cells/well). Seal the plate and incubate at 37° C. with 5% CO2 for 30 min.
After incubation the cAMP assay signal was generated using cAMP dynamic 2 Kit (Cisbio). 5 μL cAMP-d2 working solution was added to each well, followed with 5 μL Anti-cAMP antibody-cryptate working solution added to each well using ThermoFisher Multidrop Combi. Incubate at room temperature for 1 hour protected from light. Read the fluorescence at 665 and 615 nm with Reader PerkinElmer EnVision.
% Activity=100%×(mean RLU of test sample−mean RLU of vehicle control)/(mean RLU of MAX control−mean RLU of vehicle control))

[1] abbreviates: HEK293/GLP1R/CRE-LUC cells, cAMP dynamic 2 Kit (Cisbio), 30 min incubation at 37° C., read-out: EC50.

Like-named read-outs stand apart in the source and are kept apart here.

What is called EC50 is the concentration that produces a half-maximal response.

Chain of GLP-1 Receptor (P43220 24-463, species assumed): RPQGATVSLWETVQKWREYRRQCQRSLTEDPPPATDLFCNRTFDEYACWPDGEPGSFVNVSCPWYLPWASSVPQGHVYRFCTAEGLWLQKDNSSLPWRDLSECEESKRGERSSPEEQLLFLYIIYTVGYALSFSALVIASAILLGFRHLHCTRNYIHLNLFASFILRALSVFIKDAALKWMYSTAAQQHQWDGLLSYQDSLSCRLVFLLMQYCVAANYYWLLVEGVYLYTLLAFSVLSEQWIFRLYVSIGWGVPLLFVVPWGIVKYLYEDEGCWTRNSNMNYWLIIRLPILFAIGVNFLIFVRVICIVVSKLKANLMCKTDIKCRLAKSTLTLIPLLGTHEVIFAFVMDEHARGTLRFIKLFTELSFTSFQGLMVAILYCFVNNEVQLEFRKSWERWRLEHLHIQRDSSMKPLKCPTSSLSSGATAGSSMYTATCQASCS

Take `Cc1cncc(C(=O)Nc2ccc3c(c2)nc(CN2CCC(Oc4ccnc(Cc5ccc(Cl)cc5)n4)CC2)n3C[C@@H]2CCO2)c1` [Compound 101a, N-(2-{[4-({2-[(4-chlorophenyl)methyl]pyrimidin-4-yl}oxy)piperidin-1-yl]methyl}-1-{[(2S)-oxetan-2-yl]methyl}-1H-1,3-benzodiazol-5-yl)-5-methylpyridine-3-carboxamide]: under setting [1], the EC50 turned out to be 0.081 nM.
As for `O=C(Nc1ccc2c(c1)nc(CN1CCC(Oc3ccnc(Cc4ccc(Cl)cc4)n3)CC1)n2C[C@@H]1CCO1)c1cccnc1` [Compound 102a, N-(2-{[4-({2-[(4-chlorophenyl)methyl]pyrimidin-4-yl}oxy)piperidin-1-yl]methyl}-1-{[(2S)-oxetan-2-yl]methyl}-1H-1,3-benzodiazol-5-yl)pyridine-3-carboxamide], the half-maximal effective concentration (EC50) under setting [1] was determined as 0.31 nM.
With `Cc1ncccc1C(=O)Nc1ccc2c(c1)nc(CN1CCC(Oc3ccnc(Cc4ccc(Cl)cc4)n3)CC1)n2C[C@@H]1CCO1` [Compound 103a, N-(2-{[4-({2-[(4-chlorophenyl)methyl]pyrimidin-4-yl}oxy)piperidin-1-yl]methyl}-1-{[(2S)-oxetan-2-yl]methyl}-1H-1,3-benzodiazol-5-yl)-2-methylpyridine-3-carboxamide], under setting [1], the EC50 was determined as 0.093 nM.
On to `Cc1ccc(C(=O)Nc2ccc3c(c2)nc(CN2CCC(Oc4ccnc(Cc5ccc(Cl)cc5)n4)CC2)n3C[C@@H]2CCO2)cn1` [Compound 104a, N-(2-{[4-({2-[(4-chlorophenyl)methyl]pyrimidin-4-yl}oxy)piperidin-1-yl]methyl}-1-{[(2S)-oxetan-2-yl]methyl}-1H-1,3-benzodiazol-5-yl)-6-methylpyridine-3-carboxamide], for which the EC50 under setting [1] stood at 1.1 nM.
On the same count and under the same terms, for `Cc1ccncc1C(=O)Nc1ccc2c(c1)nc(CN1CCC(Oc3ccnc(Cc4ccc(Cl)cc4)n3)CC1)n2C[C@@H]1CCO1` [Compound 105a, N-(2-{[4-({2-[(4-chlorophenyl)methyl]pyrimidin-4-yl}oxy)piperidin-1-yl]methyl}-1-{[(2S)-oxetan-2-yl]methyl}-1H-1,3-benzodiazol-5-yl)-4-methylpyridine-3-carboxamide] the value was 5.8 nM.
In the case of `FC(F)(F)c1nnc(-c2ccc3c(c2)nc(CN2CCC(Oc4ccnc(Cc5ccc(Cl)cc5)n4)CC2)n3C[C@@H]2CCO2)[nH]1` [Compound 106a, 2-{[4-({2-[(4-chlorophenyl)methyl]pyrimidin-4-yl}oxy)piperidin-1-yl]methyl}-1-{[(2S)-oxetan-2-yl]methyl}-5-[5-(trifluoromethyl)-4H-1,2,4-triazol-3-yl]-1H-1,3-benzodiazole], the EC50 was 0.098 nM.
`Clc1ccc(Cc2nccc(OC3CCN(Cc4nc5cc(-c6nnn[nH]6)ccc5n4C[C@@H]4CCO4)CC3)n2)cc1` [Compound 107a, 2-{[4-({2-[(4-chlorophenyl)methyl]pyrimidin-4-yl}oxy)piperidin-1-yl]methyl}-1-{[(2S)-oxetan-2-yl]methyl}-5-(1H-1,2,3,4-tetrazol-5-yl)-1H-1,3-benzodiazole]: the half-maximal effective concentration (EC50) under setting [1] amounted to 0.2 nM.
Still for that read-out and setting: the figure for `O=c1[nH]c(-c2ccc3c(c2)nc(CN2CCC(Oc4ccnc(Cc5ccc(Cl)cc5)n4)CC2)n3C[C@@H]2CCO2)no1` [Compound 108a, 3-(2-{[4-({2-[(4-chlorophenyl)methyl]pyrimidin-4-yl}oxy)piperidin-1-yl]methyl}-1-{[(2S)-oxetan-2-yl]methyl}-1H-1,3-benzodiazol-5-yl)-4,5-dihydro-1,2,4-oxadiazol-5-one] is 0.38 nM; for `O=c1[nH]c(-c2ccc3c(c2)nc(CN2CCC(Oc4cccc(Cc5ccc(Cl)cc5F)n4)CC2)n3C[C@@H]2CCO2)no1` [Compound 109a] it is 15 nM.
With `Fc1cc(Cl)ccc1Cc1cccc(OC2CCN(Cc3nc4cc(-c5nnn[nH]5)ccc4n3C[C@@H]3CCO3)CC2)n1` [Compound 110a, 2-{[4-({6-[(4-chloro-2-fluorophenyl)methyl]pyridin-2-yl}oxy)piperidin-1-yl]methyl}-1-{[(2S)-oxetan-2-yl]methyl}-5-(1H-1,2,3,4-tetrazol-5-yl)-1H-1,3-benzodiazole], under setting [1], the 50% effective concentration (EC50) was 0.38 nM.
Still for that read-out and setting: the figure for `O=C(Nc1ccc2c(c1)nc(CN1CCC(Oc3ccnc(Cc4ccc(Cl)cc4F)n3)CC1)n2C[C@@H]1CCO1)c1cccnc1` [Compound 111a, N-(2-{[4-({2-[(4-chloro-2-fluorophenyl)methyl]pyrimidin-4-yl}oxy)piperidin-1-yl]methyl}-1-{[(2S)-oxetan-2-yl]methyl}-1H-1,3-benzodiazol-5-yl)pyridine-3-carboxamide] is 0.089 nM; for `COc1ccc(C(=O)Nc2ccc3c(c2)nc(CN2CCC(Oc4ccnc(Cc5ccc(Cl)cc5F)n4)CC2)n3C[C@@H]2CCO2)cn1` [Compound 112a, N-(2-{[4-({2-[(4-chloro-2-fluorophenyl)methyl]pyrimidin-4-yl}oxy)piperidin-1-yl]methyl}-1-{[(2S)-oxetan-2-yl]methyl}-1H-1,3-benzodiazol-5-yl)-6-methoxypyridine-3-carboxamide] it is 0.37 nM.
On the same count and under the same terms, for `Cc1ccc(C(=O)Nc2ccc3c(c2)nc(CN2CCC(Oc4ccnc(Cc5ccc(Cl)cc5F)n4)CC2)n3C[C@@H]2CCO2)cn1` [Compound 113a, N-(2-{[4-({2-[(4-chloro-2-fluorophenyl)methyl]pyrimidin-4-yl}oxy)piperidin-1-yl]methyl}-1-{[(2S)-oxetan-2-yl]methyl}-1H-1,3-benzodiazol-5-yl)-6-methylpyridine-3-carboxamide] the value was 0.18 nM.
On the same count and under the same terms, the figure for `CCc1ccc(C(=O)Nc2ccc3c(c2)nc(CN2CCC(Oc4ccnc(Cc5ccc(Cl)cc5F)n4)CC2)n3C[C@@H]2CCO2)cn1` [Compound 114a, N-(2-{[4-({2-[(4-chloro-2-fluorophenyl)methyl]pyrimidin-4-yl}oxy)piperidin-1-yl]methyl}-1-{[(2S)-oxetan-2-yl]methyl}-1H-1,3-benzodiazol-5-yl)-6-ethylpyridine-3-carboxamide] is 1.6 nM; for `COCCOc1ccc(C(=O)Nc2ccc3c(c2)nc(CN2CCC(Oc4ccnc(Cc5ccc(Cl)cc5F)n4)CC2)n3C[C@@H]2CCO2)cn1` [Compound 115a, N-(2-{[4-({2-[(4-chloro-2-fluorophenyl)methyl]pyrimidin-4-yl}oxy)piperidin-1-yl]methyl}-1-{[(2S)-oxetan-2-yl]methyl}-1H-1,3-benzodiazol-5-yl)-6-(2-methoxyethoxy)pyridine-3-carboxamide] it is 2.7 nM.
Take `CC(C)c1ccc(C(=O)Nc2ccc3c(c2)nc(CN2CCC(Oc4ccnc(Cc5ccc(Cl)cc5F)n4)CC2)n3C[C@@H]2CCO2)cn1` [Compound 116a, N-(2-{[4-({2-[(4-chloro-2-fluorophenyl)methyl]pyrimidin-4-yl}oxy)piperidin-1-yl]methyl}-1-{[(2S)-oxetan-2-yl]methyl}-1H-1,3-benzodiazol-5-yl)-6-(propan-2-yl)pyridine-3-carboxamide]: the half-maximal effective concentration (EC50) under setting [1] was found to be 11 nM.
Same read-out and setting: for `O=C(Nc1ccc2c(c1)nc(CN1CCC(Oc3ccnc(Cc4ccc(Cl)cc4F)n3)CC1)n2C[C@@H]1CCO1)c1ccc(C2CC2)nc1` [Compound 117a, N-(2-{[4-({2-[(4-chloro-2-fluorophenyl)methyl]pyrimidin-4-yl}oxy)piperidin-1-yl]methyl}-1-{[(2S)-oxetan-2-yl]methyl}-1H-1,3-benzodiazol-5-yl)-6-cyclopropylpyridine-3-carboxamide] the value was 5.9 nM.
Turning to `Fc1cc(Cl)ccc1Cc1nccc(OC2CCN(Cc3nc4cc(/C=C/c5cccnc5)ccc4n3C[C@@H]3CCO3)CC2)n1` [Compound 118a, 2-{[4-({2-[(4-chloro-2-fluorophenyl)methyl]pyrimidin-4-yl}oxy)piperidin-1-yl]methyl}-1-{[(2S)-oxetan-2-yl]methyl}-5-[(1E)-2-(pyridin-3-yl)ethenyl]-1H-1,3-benzodiazole], the concentration for a half-maximal effect (EC50) came out at 44 nM.
Turning to `O=C(Nc1ccc2c(c1)nc(CN1CCC(Oc3ccnc(Cc4ccc(Cl)cc4F)n3)CC1)n2C[C@@H]1CCO1)c1ccc(-c2ccccc2)nc1` [Compound 119a, N-(2-{[4-({2-[(4-chloro-2-fluorophenyl)methyl]pyrimidin-4-yl}oxy)piperidin-1-yl]methyl}-1-{[(2S)-oxetan-2-yl]methyl}-1H-1,3-benzodiazol-5-yl)-6-phenylpyridine-3-carboxamide], the EC50 under setting [1] stood at 43 nM.
For `FC(F)(F)c1nnc(-c2cnc3c(c2)nc(CN2CCC(Oc4ccnc(Cc5ccc(Cl)cc5)n4)CC2)n3C[C@@H]2CCO2)[nH]1` [Compound 120a, 2-[(4-chlorophenyl)methyl]-4-({1-[(3-{[(2S)-oxetan-2-yl]methyl}-6-[5-(trifluoromethyl)-4H-1,2,4-triazol-3-yl]-3H-imidazo[4,5-b]pyridin-2-yl)methyl]piperidin-4-yl}oxy)pyrimidine], the response was half-maximal at 0.17 nM (EC50).
With `Fc1cnc(Cc2ccc(Cl)cc2)nc1OC1CCN(Cc2nc3cc(-c4nnc(C(F)(F)F)[nH]4)cnc3n2C[C@@H]2CCO2)CC1` [Compound 121a, 2-[(4-chlorophenyl)methyl]-5-fluoro-4-({1-[(3-{[(2S)-oxetan-2-yl]methyl}-6-[5-(trifluoromethyl)-4H-1,2,4-triazol-3-yl]-3H-imidazo[4,5-b]pyridin-2-yl)methyl]piperidin-4-yl}oxy)pyrimidine], under setting [1], the concentration giving a half-maximal response (EC50) came to 0.5 nM.

Source of the values: patent US20240083886A1, “HETEROCYCLIC GLP-1 AGONISTS” (Gasherbrum Bio, Inc., priority 2020, published 2024).
